According to the NIST ThermoML archive (doi:10.1021/acs.jced.6b00786):
± gives the expanded uncertainty stated by the source.

Experiment: xn = mol fraction of the nth substance listed
Conditions: 101 kPa, Liquid, Vibrating tube method

NC=O [formamide] + O
Conditions | mass density [kg/m3]
274.15 K, x1 = 0.00244 | 1001.03 ± 0.044
274.15 K, x1 = 0.00515 | 1002.28 ± 0.045
274.15 K, x1 = 0.0086 | 1003.85 ± 0.046
274.15 K, x1 = 0.02032 | 1009 ± 0.048
274.15 K, x1 = 0.03478 | 1014.99 ± 0.052
274.15 K, x1 = 0.04976 | 1020.81 ± 0.055
274.15 K, x1 = 0.06674 | 1026.93 ± 0.058
274.15 K, x1 = 0.08229 | 1032.24 ± 0.061
274.15 K, x1 = 0.1171 | 1043.06 ± 0.071
275.15 K, x1 = 0.00244 | 1001.06 ± 0.044
275.15 K, x1 = 0.00515 | 1002.29 ± 0.045
275.15 K, x1 = 0.0086 | 1003.84 ± 0.045
275.15 K, x1 = 0.02032 | 1008.93 ± 0.048
275.15 K, x1 = 0.03478 | 1014.85 ± 0.052
275.15 K, x1 = 0.04976 | 1020.62 ± 0.055
275.15 K, x1 = 0.06674 | 1026.67 ± 0.058
275.15 K, x1 = 0.08229 | 1031.93 ± 0.061
275.15 K, x1 = 0.1171 | 1042.67 ± 0.07
276.15 K, x1 = 0.00244 | 1001.07 ± 0.044
276.15 K, x1 = 0.00515 | 1002.28 ± 0.045
276.15 K, x1 = 0.0086 | 1003.81 ± 0.045
276.15 K, x1 = 0.02032 | 1008.85 ± 0.048
276.15 K, x1 = 0.03478 | 1014.7 ± 0.051
276.15 K, x1 = 0.04976 | 1020.4 ± 0.055
276.15 K, x1 = 0.06674 | 1026.42 ± 0.058
276.15 K, x1 = 0.08229 | 1031.63 ± 0.061
276.15 K, x1 = 0.1171 | 1042.28 ± 0.07
277.15 K, x1 = 0.00244 | 1001.06 ± 0.044
277.15 K, x1 = 0.00515 | 1002.26 ± 0.045
277.15 K, x1 = 0.0086 | 1003.77 ± 0.045
277.15 K, x1 = 0.02032 | 1008.75 ± 0.048
277.15 K, x1 = 0.03478 | 1014.54 ± 0.051
277.15 K, x1 = 0.04976 | 1020.19 ± 0.055
277.15 K, x1 = 0.06674 | 1026.14 ± 0.058
277.15 K, x1 = 0.08229 | 1031.3 ± 0.061
277.15 K, x1 = 0.1171 | 1041.88 ± 0.07
278.15 K, x1 = 0.00244 | 1001.04 ± 0.044
278.15 K, x1 = 0.00515 | 1002.23 ± 0.045
278.15 K, x1 = 0.0086 | 1003.72 ± 0.045
278.15 K, x1 = 0.02032 | 1008.64 ± 0.048
278.15 K, x1 = 0.03478 | 1014.37 ± 0.051
278.15 K, x1 = 0.04976 | 1019.96 ± 0.055
278.15 K, x1 = 0.06674 | 1025.86 ± 0.058
278.15 K, x1 = 0.08229 | 1030.99 ± 0.061
278.15 K, x1 = 0.1171 | 1041.47 ± 0.069
278.15 K, x1 = 0.1745 | 1056.3 ± 0.078
278.15 K, x1 = 0.2169 | 1065.71 ± 0.085
278.15 K, x1 = 0.2557 | 1073.39 ± 0.09
278.15 K, x1 = 0.3026 | 1081.73 ± 0.097
278.15 K, x1 = 0.351 | 1089.33 ± 0.1
278.15 K, x1 = 0.4027 | 1096.66 ± 0.11
278.15 K, x1 = 0.4487 | 1102.5 ± 0.12
278.15 K, x1 = 0.4886 | 1107.05 ± 0.12
278.15 K, x1 = 0.5601 | 1114.6 ± 0.13
278.15 K, x1 = 0.5916 | 1117.67 ± 0.14
278.15 K, x1 = 0.6674 | 1124.31 ± 0.15
278.15 K, x1 = 0.7066 | 1127.46 ± 0.15
278.15 K, x1 = 0.7495 | 1130.64 ± 0.16
278.15 K, x1 = 0.7931 | 1133.73 ± 0.17
278.15 K, x1 = 0.8601 | 1138.23 ± 0.17
278.15 K, x1 = 0.8996 | 1140.73 ± 0.18
278.15 K, x1 = 0.948 | 1143.61 ± 0.19
278.15 K, x1 = 0.9753 | 1145.18 ± 0.19
278.15 K, x1 = 0.9847 | 1145.72 ± 0.2
278.15 K, x1 = 0.9897 | 1146.01 ± 0.2
278.15 K, x1 = 0.9959 | 1146.38 ± 0.21
